Test results: patent US20080045477A1, “Series Of New 4,6-Diamino-1,2-Dihydro-1-Aryl-1,3,5-Triazines, Substituted By An Adamantyl Moiety In The Position 2 Of Triazine-Their Corresponding Salts, Isomers,Steroisomers, Enantiomers, Free Bases And The Complexes Of All The Above With Natural Macromolecules And Their Synthetic Derivatives” (priority 2001, published 2008)

NC1=NC(C23CC4CC(CC(C4)C2)C3)N(c2ccc(Cl)cc2)C(N)=N1 (stereo not shown) [Example free base, 4,6-Diamino-1,2-dihydro-1-(4-chlorophenyl)-2-(1-tricyclo[3.3.1.1^3,7]decyl)-1,3,5-triazine]
melting point: 168 to 170 °C
